In patent US20150202179A1, “FATTY ACID DERIVATIVES FOR USE IN A METHOD OF TREATING DEPRESSION AND ASSOCIATED CONDITIONS” (YISSUM RESEARCH DEVELOPMENT COMPANY OF THE HEBREW …, priority 2012, published 2015):
“Also recorded” adds a separate entry of the source.

Key:
[1] = Weight and food consumption in Sabra mice; type: in vivo
Method: 140 Female Sabra Mice 12 weeks old are divided to […] 10 mice in each group with equal weight. Mice are administered I.P. with either saline or 1 mg/kg Fluoxetine (PROZAC), compound 1, 4, 5, 7, 10, 11, 12, 13, 14, 15, 19, 26 for a 4 weeks period. On day 30 and on, mice were tested by the following behavioral tests. […]

[2] = Forced Swim Test (FST), separated BALB/c mice; type: in vivo; conditions: compounds 1 mg/kg i.p., imipramine 10 mg/kg i.p.; day 8; in relation to vehicle
Method: Forced swim test (FST): The animal is placed in a circular, transparent, plexiglass tank measuring 21 cm in diameter and 46 cm in height containing water 15 cm high, maintained at 23-25° C. […] Also measured is the latency period, the time elapsing, for each animal from immersion in the water tank until the first occurrence of immobility. Since climbing activity is minimal in mice, […].
(§1) 50, 2 month old female BALB/c mice, 10 mice per group, on ad libitum diet were separated (each mouse in a different cage) for 9 days (Separation Stress, a model for depression). On the 7, 8, 9, 34-40 days mice were administered with either vehicle or compounds x, 12 and 15 (1 mg/kg i.p.) or imipramine 10 mg/kg (antidepressant) i.p. and tested in the forced swim test (FST) on day 8.

[3] = Neurological score measured by the NSS method; type: in vivo, BALB/c mice; conditions: 1 mg/kg i.p.
[4] = Weight and food consumption in OB/OB mice which lack the leptin gene; type: in vivo
Description: Thus the compounds of the invention can be used to treat conditions that are mediated by the enhancement of leptin levels. In obesity there is high leptin level however the leptin receptors are not responding. High CNS leptin level has anti-depression effect however, if there is tolerance there is no anti depression effect.

[5] = tested on: Norepinephrine (NE) levels; assay: Norepinephrine (NE) determination in brain tissue by HPLC with electrochemical detection; type: in vivo, mice; conditions: for NE: ng/g wet tissue +/− SEM; for norepinephrine levels in the hippocampus vs. control / norepinephrine levels in the hypothalamus vs. control: result in words
Method: (§2) Solution of DHBA as internal standard in the concentration of: 1 μg/ml in 0.1M perchloric acid, were prepared. Standard solutions of NE and 5HT in the concentration of 1-0.1 μg/ml in 0.1M perchloric acid were prepared.
(§3) Tissues (hypothalamus and hippocampus) obtained from 6-8 mice were dissected on ice surface and kept at −80 C. Hypothalamus (HT) or hippocampus (HC) from 1 mice were weighted (weight of HT −10-20 mg, HC 30-40 mg) and placed in eppendorf micro-centrifuge tube, 1.5 ml. To each tube was added 120-160 μl of ice cold solution of Perchloric acid and DHBA, homogenized in ice bath on Sonics vibra cell, 3×20 sec., 0.4 watts and centrifuged at 14,000×g at 4° C. 10 min. Supernatant gained was stored in ice before analysis.
(§4) The HPLC system consisted of Jasco PU-980 pump, Jasco AS-950-10 autosampler cooled at 4° C., H3 ODS-125A 3 μm 125 mm×4.6 mm i.d. analytical column (Hichrom, UK) were used. Electrochemical detector Coulochem ESA 5100A with analytical cell model 5011 was used for control detector voltage and record the current. Working electrode was set at potential +350 mV. Control and data collection/processing were handled through Borwin chromatography software.
(§5) The mobile phase composition: A stock buffer was prepared as follows: 20 mM sodium dihydrogenorthophosphate, EDTA 3 mg/l, 1-heptanesulfonic acid 1 g/l were dissolved in 1 liter deionized distilled water and buffered to pH 3.7 using concentrated phosphoric acid. To prepare the mobile phase buffer was mixed with acetonitrile (Baker HPLC analyzed) in the ratio 85:15 (v/v), filtered through a 0.2 μm membrane filter and degassed under vacuum after mixing. Mobile phase flow rate 1 ml/min. Injection volume 20 μl, retention time for DHBA 4.2 min., norepinephrine—3.1 min., 5HT 8.6 min. For calibration curve 1 ug/ml solution of DHBA together with 1.0-0.1 μg/ml solutions of 5HT and NE were used. The ratio between 5HT or NE and DHBA used to calculate the level of 5HT and NE in the sample. Date are given in ng/g wet tissue +/−SEM.

serotonin (5HT) levels = assay: Serotonin (5HT) determination in brain tissue by HPLC with electrochemical detection; type: in vivo, mice; conditions: for 5HT: ng/g wet tissue +/− SEM; for 5HT levels in the hippocampus vs. control / 5HT levels in the hypothalamus vs. control: result in words
Method: as §2, §3, §4, §5

[6] = Novelty Suppressed Feeding Test (NSFT), separated BALB/c mice; type: in vivo; conditions: compounds 1 mg/kg i.p., day 9; for food intake in NSFT: in relation to vehicle and more than imipramine 10 mg/kg; for motor activity in NSFT: resembled imipramine 10 mg/kg
Method: (§6) Novelty suppressed feeding test (NSFT): After the last treatment injection, all food is removed from the cage for 24 hours (water available ad libitum). At the end of this time, the animal is introduced into a 50×50×20 (height) cm wooden arena the floor of which is marked with equal rectangles of 10×10 cm. A pellet of food is placed on an elevated surface in the center of the arena. The time elapsing from the introduction of the animal into the arena until it commences eating (latency to feed) is recorded. The animal is removed from the arena immediately after it begins to eat or after not doing so for 5 min. During the test, the number of lines crossed by the animal is counted as a measure of motor activity, and calibrated for 5 min if the animal started eating before that. After the test, the animal is immediately transferred to its home cage and left to consume a previously weighed amount of food for 10 minutes. On completion of this period the food is weighed again to calculate the home cage food consumption.
as §1, with “34-40,” for “34-40”, “Novel Suppressed Feeding Test” for “the forced swim test (FST)”, “9.” for “8.”
as §6, with “FIGS. 9A-9C show the results of the NSFT. […]” for “Novelty suppressed feeding test (NSFT):”, “hours.” for “hours (water available ad libitum).”, “into” for “into a 50×50×20 (height) cm wooden arena”, “open field test.” for “floor of which is marked with equal rectangles of 10×10 cm.”, “to find” for “elapsing from”, “food was” for “introduction of the animal into the arena until it commences eating (latency to feed) is”

[7] = Eight Arm Maze Test, separated BALB/c mice; type: in vivo; conditions: compounds 1 mg/kg i.p., imipramine 10 mg/kg i.p.; day 34-38; in relation to vehicle (p<0.05)
Method: 2 month old female BALB/c mice 10 mice per group were separated (each mouse in a different cage) for 9 days (a model for depression). On days 7, 8, 9, 34-40 days mice were administered with either vehicle or compounds X, 12 and 15 (1 mg/kg i.p.) or imipramine 10 mg/kg (anti-depressant) i.p. and tested in the Eight Arm Maze from day 34-38.

[8] = Tail Suspension Test, separated BALB/c mice (model for depression); type: in vivo; conditions: compounds 1 mg/kg i.p., imipramine 10 mg/kg i.p.; day 7; in relation to vehicle
Description: Tail suspension test (TST): Animals are suspended upside down by adhesive tape placed 1 cm from the tail tip. The elevation of the animal is 50 cm from the nearest surface. […] Statistical analysis compares the magnitude of immobility (in seconds) between different treatment groups. In this test, antidepressants characteristically cause an increase of the time fraction spent by the animal as active at the expense of the inactivity period.
50, 2 month old female BALB/c mice were separated (each mouse in a different cage) for 9 days period (a model for depression). On days 7, 8, 9, 34-40 mice were administered with either vehicle or compounds X, 12 and 15 (1 mg/kg i.p.) or imipramine 10 mg/kg (anti-depressant) i.p. and tested in the Tail suspension test on day 7 of the experiment (10 mice per group).

| SMILES | food consumption [1] | weight (weight loss) [1] | swimming activity in forced swim test [2] | neurological score (NSS method) [3] | food consumption [4] | weight (weight loss) [4] | NE ([5]; Hippocampus) [ng/g] | norepinephrine levels in the hippocampus vs. control [5] | 5HT (serotonin (5HT) levels; Hippocampus) [ng/g] | 5HT (serotonin (5HT) levels; Hypothalamus) [ng/g] | 5HT levels in the hippocampus vs. control (serotonin (5HT) levels) | 5HT levels in the hypothalamus vs. control (serotonin (5HT) levels) | food intake in NSFT [6] | motor activity in NSFT [6] | performance in the Eight Arm Maze [7] | activity in Tail Suspension Test [8] | other results |
| --- | --- | --- | --- | --- | --- | --- | --- | --- | --- | --- | --- | --- | --- | --- | --- | --- | --- |
| CCCCCCCC/C=C\CCCCCCCCOC(=O)N[C@H](CO)C(C)C [Compound 12, Oleyloxycarbonyl-L-Valinol amide] | significant decrease | significant weight loss; also recorded: significant decrease | significantly enhanced swimming activity | did not affect neurological score | did not change | do not produce weight loss; also recorded: did not change | 378.9 ± 31.4 | significantly enhanced; also recorded: increase significantly | 332.1 ± 52.7 | 810.5 ± 70.6 | significantly enhanced; also recorded: increased significantly | increased significantly | significantly enhanced food intake | enhanced motor activity | significantly improved performance | – | – |
| CN(C)CCCN1c2ccccc2CCc2ccccc21 [imipramine, reference compound] | – | – | significantly enhanced swimming activity | – | – | – | – | – | – | – | – | – | – | – | significantly improved performance | significantly enhanced activity | – |
| CCCCCCCC/C=C\CCCCCCCCNC(=O)N[C@H](CO)C(C)C [Compound 15, Oleyl-amine-carbonyl-L-valinol] | significant decrease | significant weight loss; also recorded: significant decrease | significantly enhanced swimming activity | did not affect neurological score | did not change | do not produce weight loss; also recorded: did not change | 373.7 ± 48.1 | increase significantly | 396.7 ± 21 | 853 ± 78.3 | increased significantly | increased significantly | significantly enhanced food intake | enhanced motor activity | significantly improved performance | significantly enhanced activity | NE ([5]; Hypothalamus): 1234.8 ± 59.8 ng/g; norepinephrine levels in the hippocampus vs. control ([5]; listed as compound 15): significantly enhanced; norepinephrine levels in the hypothalamus vs. control [5]: increased significantly; norepinephrine levels in the hypothalamus vs. control ([5]; listed as compound 15): significantly enhanced; 5HT levels in the hippocampus vs. control (serotonin (5HT) levels; listed as compound 15): significantly enhanced; 5HT levels in the hypothalamus vs. control (serotonin (5HT) levels; listed as compound 15): significantly enhanced |
